Experiment [1] has as its target Alpha adrenergic receptor 1A and 1B (Rattus norvegicus) (UniProt P15823+P43140). As to the kind of experiment: Selectivity towards alpha 1B and alpha 1A adrenergic receptors. It is filed as protein assay.
The target of experiment [2] is Alpha adrenergic receptor 1A and 1D (Rattus norvegicus) (UniProt P23944+P43140). The experiment in a line: Selectivity towards alpha 1D and alpha 1A adrenergic receptors. It is filed as protein assay.
The species entered for a further experiment is Rattus norvegicus. The experiment in a line: Selectivity towards alpha 1D and alpha 1B adrenergic receptors.
The target in experiment [3] is T1, 5-hydroxytryptamine receptor 1A (Homo sapiens, UniProt P08908).
T1 sequence (P08908 whole entry): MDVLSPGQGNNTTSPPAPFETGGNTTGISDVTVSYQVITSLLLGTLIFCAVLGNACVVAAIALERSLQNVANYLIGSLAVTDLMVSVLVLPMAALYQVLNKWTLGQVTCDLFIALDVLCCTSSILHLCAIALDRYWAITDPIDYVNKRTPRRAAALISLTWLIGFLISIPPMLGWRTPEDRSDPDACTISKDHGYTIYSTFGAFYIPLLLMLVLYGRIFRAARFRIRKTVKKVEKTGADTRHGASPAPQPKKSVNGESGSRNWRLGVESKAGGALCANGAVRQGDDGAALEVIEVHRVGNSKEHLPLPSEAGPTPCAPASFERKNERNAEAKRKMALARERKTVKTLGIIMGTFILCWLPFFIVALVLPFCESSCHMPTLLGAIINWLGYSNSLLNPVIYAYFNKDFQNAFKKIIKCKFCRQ
As to the kind of experiment: Inhibitory constant value against the 5-hydroxytryptamine 1A receptor.

The target in experiment [4] is T2, Alpha-1B adrenergic receptor (Rattus norvegicus) (UniProt P15823).
T2 sequence (whole entry): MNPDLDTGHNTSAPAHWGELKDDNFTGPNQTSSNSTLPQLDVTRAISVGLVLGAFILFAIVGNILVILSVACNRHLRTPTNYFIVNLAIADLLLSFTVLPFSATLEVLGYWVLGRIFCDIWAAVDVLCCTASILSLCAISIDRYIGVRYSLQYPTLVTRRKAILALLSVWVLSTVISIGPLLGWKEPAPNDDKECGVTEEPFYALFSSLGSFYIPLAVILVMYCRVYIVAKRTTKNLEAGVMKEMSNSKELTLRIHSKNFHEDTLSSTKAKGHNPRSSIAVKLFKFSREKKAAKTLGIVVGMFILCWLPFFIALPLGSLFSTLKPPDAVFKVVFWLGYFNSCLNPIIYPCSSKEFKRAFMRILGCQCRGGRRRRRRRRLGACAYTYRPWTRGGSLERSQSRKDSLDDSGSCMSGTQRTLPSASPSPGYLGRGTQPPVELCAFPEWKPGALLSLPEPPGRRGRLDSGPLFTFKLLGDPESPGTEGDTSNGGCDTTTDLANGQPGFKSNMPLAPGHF
As to the kind of experiment: Antagonist potency against the alpha-1B adrenergic receptor determined in isolated rat spleen. The format is functional, tissue-based.

The target in experiment [5] is T3, Alpha-1A adrenergic receptor (Rattus norvegicus) (UniProt P43140).
T3 sequence (whole entry): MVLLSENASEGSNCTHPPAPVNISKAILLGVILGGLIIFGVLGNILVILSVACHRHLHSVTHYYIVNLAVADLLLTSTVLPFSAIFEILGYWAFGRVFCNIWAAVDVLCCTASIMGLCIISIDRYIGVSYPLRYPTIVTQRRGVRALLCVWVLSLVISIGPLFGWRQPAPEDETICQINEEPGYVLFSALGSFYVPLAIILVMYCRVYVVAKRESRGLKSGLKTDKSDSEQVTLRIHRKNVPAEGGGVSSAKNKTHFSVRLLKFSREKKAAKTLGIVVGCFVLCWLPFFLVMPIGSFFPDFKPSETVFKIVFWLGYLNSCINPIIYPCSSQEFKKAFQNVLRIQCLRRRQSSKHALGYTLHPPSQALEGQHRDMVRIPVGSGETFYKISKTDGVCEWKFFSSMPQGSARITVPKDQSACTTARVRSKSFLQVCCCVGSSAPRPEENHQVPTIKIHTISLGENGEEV
The experiment in a line: Antagonist potency against the alpha-1A adrenergic receptor was determined in isolated rat prostatic vas deferens. The format is functional, tissue-based.

The target of experiment [6] is T4, Alpha-1D adrenergic receptor (Rattus norvegicus) (UniProt P23944).
T4 sequence (whole entry): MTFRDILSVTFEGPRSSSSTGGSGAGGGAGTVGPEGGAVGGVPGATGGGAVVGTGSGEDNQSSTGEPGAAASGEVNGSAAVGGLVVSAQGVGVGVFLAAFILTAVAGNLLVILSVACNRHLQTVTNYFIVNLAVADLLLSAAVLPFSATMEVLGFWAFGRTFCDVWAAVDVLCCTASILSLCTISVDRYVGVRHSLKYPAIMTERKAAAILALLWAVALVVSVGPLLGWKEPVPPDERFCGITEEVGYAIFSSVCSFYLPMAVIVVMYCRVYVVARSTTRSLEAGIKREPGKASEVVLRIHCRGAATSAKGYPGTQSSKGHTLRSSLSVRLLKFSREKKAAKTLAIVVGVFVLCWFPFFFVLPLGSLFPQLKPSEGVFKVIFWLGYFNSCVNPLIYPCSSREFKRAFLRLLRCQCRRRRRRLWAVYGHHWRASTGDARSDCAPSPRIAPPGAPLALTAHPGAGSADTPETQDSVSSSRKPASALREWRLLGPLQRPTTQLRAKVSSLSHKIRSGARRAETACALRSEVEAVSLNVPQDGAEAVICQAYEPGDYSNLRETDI
As to the kind of experiment: Antagonist potency against the alpha-1D adrenergic receptor was determined in isolated rat thoracic aorta. It is filed as functional, tissue-based.

Experiment [7] can be described thus: Selectivity towards 5-hydroxytryptamine 1A and alpha 1D adrenergic receptors was determined.
For experiment [8], the target named is T5, 5-hydroxytryptamine receptor 1A (Homo sapiens) (UniProt P08908).
T5 sequence (whole entry): T1 sequence (P08908 whole entry)
The experiment in a line: The maximal stimulation of [35S]GTP-gamma-S, binding (Emax) against the 5-hydroxytryptamine 1A receptor. The format is functional. In general terms: GTPγS resists hydrolysis and so accumulates on activated G proteins.

Experiment [9] addresses T5, 5-hydroxytryptamine receptor 1A (Homo sapiens). The experiment in a line: Potency against the 5-hydroxytryptamine 1A receptor determined by using [35S]GTP-gamma-S, binding. The format is functional.
Experiment [10] addresses T1, 5-hydroxytryptamine receptor 1A. As to the kind of experiment: Inhibitory constant value against 5-hydroxytryptamine 1A receptor.

The structures appear in SMILES notation. Some results are limits rather than exact numbers.

One may read the Ki as the dissociation constant of the complex between target and ligand, obtained from inhibition or displacement. A lower Ki goes with higher affinity. By pKb is commonly meant the Kb on a negative log10 scale, so that one unit is a factor of ten. For `COc1ccccc1N1CCN(CC2Nc3ccccc3S(=O)(=O)N2)CC1` (configuration not stated), the Selectivity worked out at 1.5 in experiment [1], 0.35 in [2], 0.23 in the experiment filed under Rattus norvegicus and 275 in [7]. In experiment [3], this compound had a Ki of 0.0166 µM. In addition, the pKb is 5.97 in experiment [4], 5.81 in [5] and 5.34 in experiment [6].

In [8], `COc1ccccc1N1CCN(CCN2C(=O)CC3(CCCC3)CC2=O)CC1` [BMY-7378] returned an Emax of 26. The compound also gave a pD2 in experiment [9] of 9.27. The compound further gave a Ki in [3] of 0.00126 µM. Further, the negative logarithm of the Kb (pKb) in experiment [4] is 7.48.

Consider `COc1ccccc1N1CCN(CC2=NS(=O)(=O)c3ccc(C)cc3N2)CC1`, for which the Selectivity in [1] is > 11; in [2], > 3; in the experiment listed under Rattus norvegicus, 0.28. In [3], this compound had an inhibition constant (Ki) of 0.107 µM. In addition, the values for the pKb in experiment [4], in experiment [5] and in [6] were 6.05, < 5 and 5.5, respectively.

Regarding `COc1ccccc1N1CCN(CC2Nc3cc(C)ccc3S(=O)(=O)N2)CC1` (configuration not stated), the Selectivity was 2 in experiment [1], 0.95 in experiment [2], 0.55 in the experiment listed under Rattus norvegicus and < 10 in experiment [7]. The pKb in [4] worked out at 6.24; in [5], 6; in experiment [6], 5.98.

For `COc1ccccc1N1CCN(CC2=NS(=O)(=O)c3ccccc3N2)CC1`, the Selectivity in [1] is > 3; in [2], > 389; in the experiment listed under Rattus norvegicus, 135; in experiment [7], < 0.03. The Ki in [10] was > 1 µM. Besides, the values for the pKb in [4], in [5] and in experiment [6] were 5.46, < 5 and 7.59, respectively.

Regarding `COc1ccccc1N1CCN(CC2=NS(=O)(=O)c3ccc(Cl)cc3N2)CC1`, the Selectivity in experiment [1] came out at 8; in [2], 295; in the experiment listed under Rattus norvegicus, 38; in experiment [7], 0.38. The compound also had a Ki in experiment [3] of 0.0468 µM. The pKb amounted to 6.17 in experiment [4], 5.28 in [5] and 7.75 in experiment [6].

As for `COc1ccccc1N1CCN(CC2Nc3cc(Cl)ccc3S(=O)(=O)N2)CC1` (configuration not stated), the Emax in experiment [8] came out at 23. The Selectivity was 1 in experiment [1], 1 in experiment [2], 1 in the experiment filed under Rattus norvegicus and 1100 in [7]. Also, the pD2 in [9] was 6.92. This compound had a Ki in experiment [3] of 0.00912 µM. The pKb stood at 5.09 in experiment [4], 5.05 in experiment [5] and 5 in [6].

(Values after ChEMBL document CHEMBL1144332, “1,2,4-Benzothiadiazine derivatives as alpha1 and 5-HT1A receptor ligands” (Bioorg Med Chem Lett, 2005).)
